The values that follow come from US20250235520A1, “METHODS FOR REVERSING A SUPPRESSED IMMUNE STATE TO INCREASE SURVIVAL IN A SUBJECT” (priority 2022, published 2025).

The subject of test [1] is breast cancer patients with tumors expressing any degree of HER2. Nature of the test: Phase IIb trial: injection site reactions (ISRs), orthogonal mean of largest perpendicular diameters. The class given is in vivo, human. As to the method:
Background: Delayed type hypersensitivity (DTH) skin tests in the randomized, active-controlled, single-blinded, multicenter Phase IIb trial investigating GLSI-100 (GP2+GM-CSF) administered in the adjuvant setting to node-positive and high-risk node-negative breast cancer patients with tumors expressing any degree of HER2 (immuno-histochemistry [IHC] 1-3+) (NCT00524277) were analyzed. The trial enrolled HLA-A*02 patients randomized to receive GLSI-100 versus GM-CSF alone. The trial's primary objective was to determine if treatment with GLSI-100, a HER2-derived peptide, reduces recurrence rates.
Methods: Patients were randomized and received GLSI-100 (500 micrograms (mcg) GP2 and 125 mcg GM-CSF) or control (GM-CSF) via 6 intradermal injections every 3-4 weeks for the first 6 months and 4 booster injections every 6 months. The magnitude of injection site reactions, which occurred in almost all patients, were assessed for the 10 doses administered by measuring the largest perpendicular diameters and the resulting orthogonal mean.

Test [2] deals with breast cancer patients with tumors expressing HER2 (HER2 3+). Briefly: Phase IIb trial (NCT00524277): disease free survival / recurrence. In kind it is in vivo, human. The following applies: HER2 3+ patients who completed the primary immunization series after trastuzumab; 5 years of follow-up.

Turning to “GM-CSF: granulocyte macrophage colony-stimulating factor, adjuvant; control arm (called placebo) of the active-controlled trial”, the “median orthogonal mean induration” value in test [1] (after a single dose) is given as 7.8 mm. In addition, the “patients with injection site reactions” value in test [1] (all treated patients) is listed as about 100%. Further, in test [1] (average over all 10 doses), the “difference in reactions, HER2 3+ control patients (Herceptin treated) smaller than HER2 1-2+ control patients” value is listed as 43.1 mm. The “Kaplan-Meier estimated 5-year disease free survival (DFS) rate” value in test [2] is recorded as 89.4%.
With “Ile Ile Ser Ala Val Val Gly Ile Leu (IISAVVGIL) [GP2, 9 amino acid transmembrane peptide of the HER2/neu protein]”, the “increase of injection site reactions by adding GP2 treatment” value in test [1] (trastuzumab treated HER2 3+ patients vs GM-CSF control, average over all 10 doses) was determined as 39.2 mm.
